In patent US7166688B1, “Chelation compositions” (LidoChem, Inc., priority 2000, dated 2007):

Key:
[1] = Manganese chelation, clear solution / precipitate test; format: physicochemical
Protocol: In 25 ml of water 10 ml of a manganese nitrate solution was added. Once the manganese nitrate was in solution, 30 ml of the N,N-diethanolsuccinamide amino ethanol solution produced in Example 17 was added to the mixture and the pH of the blend was adjusted to 6. Then 1 gram of potassium phosphate was added to the mixture.
A five percent chelated manganese solution was prepared by blending 18 ml of water with 58 grams of a (17% Mn) manganese nitrate solution. Once the manganese nitrate was in solution, 82 grams of the compound produced in Example 10 was added. […] This chelated manganese solution is suitable for blending with phosphorus fertilizers.

[2] = Copper chelation, clear solution / precipitate test; format: physicochemical
Protocol: A five percent chelated copper solution was prepared by blending 19 grams of basic copper sulfate in 100 ml of water. Concentrated HCl was added to solubilize the copper. Once in solution, 71 grams of the compound produced in Example 10 was added. […] This chelated copper solution is suitable for blending with phosphorus fertilizers.
In 250 ml of water 1 gram of copper sulfate was added and mechanically stirred. To this solution, 10 ml of the diethanolsuccinamide-amino ethanol solution produced in Example 17 was added. The pH of the blend was adjusted to 8.4 and 1 gram of potassium phosphate was added the mixture.
In another flask, 1 gram of copper sulfate was added to 250 ml of water and mechanically blended. Then, 1 gram of potassium phosphate was added to the blend. The pH of the solution was adjusted with potassium hydroxide. Immediately a powder solid was formed and precipitated. The hydroxide and phosphate salts of copper were formed.
(§1) In 400 ml of water, 1 gram of copper sulfate was added and 10 ml of the product from example 28 were added. With mechanical stirring, 20 grams of monopotassium phosphate were added to the mix. The pH of the solution was then adjusted to 2 with HCl. The pH of the solution was then gradually raised with the addition of Monoethanolamine to a pH of 9.
Two grams of basic copper sulfate were added to 200 ml of water. […]

[3] = Zinc chelation, clear solution / precipitate test; format: physicochemical
Protocol: In 25 ml of water 1 gram of zinc sulfate was added. Once the zinc sulfate was in solution, 30 ml of the N,N-diethanolsuccinamide amino ethanol solution produced in Example 17 was added and the pH of the blend was adjusted to 9.5. Then 1 gram of potassium phosphate was added tho the mixture.
In a separate flask 25 ml of water, 1 gram of zinc sulfate and 1 gram of potassium phosphate were blended together. Immediately a white precipitate formed.
as §1, with “20 ml” for “1 gram”, “a 17% zinc nitrate solution were” for “copper sulfate was”, “60” for “10”, “40” for “20”
A nine percent chelated zinc solution was prepared by blending 50 ml of water with 22.4 grams zinc oxide. Concentrated HCl was added until the solution was clear. Once in solution, 125 grams of the compound produced in Example 10 was added. […] This chelated zinc solution is suitable for blending with phosphorus fertilizers 2-ethanolaminesuccinic-N-ethanolsuccinicamide (tri potassium salt) has the following formula: […]
Ten ml of 17% zinc solution were added to a liter of water. Later 20 grams of potassium phosphate were added and dissolved. Zinc phosphate formed a precipitate. Phosphorous acid was then added to lower the pH and clear the solution. Once clear 30 ml of the solution prepared in example 35 was added. This acidic solution, which was acidic, then remained undisturbed for a day, after which the pH was adjusted to 10 with the addition of MEA.

[4] = Iron chelation, clear solution / precipitate test; format: physicochemical
Protocol: A five percent chelated iron solution was prepared by blending 18 ml of water with 100 grams of a (10% Fe) ferric nitrate solution. Once in solution, 82 grams of the compound produced in Example 10 was added.
In 25 ml of water, 20 ml of a 1.8M ferric nitrate was added. Once in solution, 30 ml of the diethanolsuccinamide amino ethanol solution produced in Example 17 was added and the pH of the blend was adjusted to 9.2. Then 1 gram of potassium phosphate was added to the mixture.
Five drops of 1.8 M ferric nitrate were added to one liter of water and mechanically blended. Then 10 grams of potassium phosphate were added to the solution and allowed to form insoluble potassium salts.
In 400 ml of water, 20 ml of a 10% ferric nitrate solution were added, and 20 ml of the product from example 25 were added. With mechanical stirring, 40 grams of monopotassium phosphate was added the mix. The pH of the solution was then adjusted to 2 with HCl. The pH of the solution was then gradually raised with the addition of base to a pH of 10.
In 400 ml of water, 10 ml of 1.8 M ferric nitrate solution were added and 20 ml of the product from example 28 were added. With mechanical stirring, 20 grams of monopotassium phosphate was added to the mix. The pH of the solution was then adjusted to 2 with HCL. The pH of the solution was then gradually raised with the addition of Monoethanolamine to a pH of 10.
To a beaker containing one liter of water, 20 grams of potassium phosphate were added to form a clear solution.
Thirty grams of 1.8 M ferric nitrate were added to 100 ml of water. The pH of the solution was lowered to 4 with phosphorous acid, and then 5 grams of Potassium phosphate were then added to the blend. Later 30 ml of the solution produced in example 29 was added.
One hundred ml of the solution prepared in Example 41 was added to 500 ml of water and blended. 10 ml of 1.8-M ferric nitrate was then added to the mixture. […] The potassium salt of maleic acid was tested as a chelating agent.
In a separate flask 20 grams of maleic anhydride were blended in 500 ml of water. Potassium hydroxide was then added to the blend to raise the pH to 10. Later ten ml of 1.8M ferric nitrate was added to the mix and 10 grams of potassium phosphate was also blended in. […] The contents of the flask were then blended again while MEA was added to the mix.

[5] = Calcium chelation, clear solution / precipitate test; format: physicochemical
Protocol: In a preliminary study, 2 grams of calcium chloride dihydrate were added to 200 ml of water and mechanically stirred. Then 20 ml of the diethanolsuccinamide amino ethanol solution produced in example 17 was added to the blend.
In another flask 2 grams of calcium chloride dihydrate were added to 200 ml of water and the pH was adjusted to 9. Almost immediately calcium hydroxide began to precipitate.

Wheat [6] = experiment: Soil applied IDS chelated minerals with 10-34-0, tissue analysis, wheat; format: in vivo
Protocol: (§2) An experimental trial was completed testing the efficacy of the Iminodisuccinates (IDS) of this invention on five different crops. Below is the protocol and tissue analysis for both soil and foliar applied iminodisuccinate chelated mineral salts.
(§3) A). The control pots were watered without any further treatments.
(§4) B). An ammonium polyphosphate stock solution was prepared by adding 50 ml of the 10-34-0 to 4000 ml of water. Treated plants received 100 ml of the stock solution.
(§5) (C). The Zinc stock solution was prepared by blending 10 ml of IDS chelated 9% Zinc to a blend of 50 ml of 10-34-0 with 4000 ml of water. Treated plants received 100 ml of the zinc stock solution.
(§6) (D). The mixture of IDS chelated micronutrients was prepared by adding 4 ml of 9% Zinc, 1 ml of 5% Copper, 1 ml of 5% manganese, and 1 ml of 5% Iron. This mixture was then blended with 4000 ml of water and 50 ml of 10-34-0.
(§7) All plants were sprayed until wet. Harvested material was placed in an oven for one day and sent to the lab for tissue analysis. Harvesting occurred thirty days after planting and some plants had not grown enough to get complete lab results reported. The harvested corn plants were cut at the whirl to insure only new leaves would be tested. The soybeans were clipped above the cotyledon. The alfalfa and clover were removed from the soil and the roots were removed. The wheat was cut at the tillering node.

Corn [7] = experiment: Foliar applied IDS chelated minerals, tissue analysis, corn; format: in vivo
Protocol: as §2
(§8) A stock solution for foliar application was prepared by blending 6000 ml of water with T-DAT 09, (Harcross Chemical Company, USA) a surfactant, added to spray mix at 2 drops per liter. • 1). 5 ml of 9% zinc was added to 1 liter of stock solution. • 2). 5 ml of 5% copper was added to 1 liter of stock solution. • 3). 5 ml of 5% manganese was added to 1 liter of stock solution. • 4). 5 ml of 5% Iron was added to 1 liter of stock solution. • 5). 4 ml of 9% zinc, 1 ml of 5% copper, 1 ml of 5% manganese, and 1 ml of 5% iron was added to 1 liter of stock solution. • 6). Stock solution without further addition.
as §7

Soybean [8] = experiment: Soil applied IDS chelated minerals with 10-34-0, tissue analysis, soybeans; format: in vivo
Protocol: as §2, §3, §4, §5, §6, §7

Corn [9] = experiment: Soil applied IDS chelated minerals with 10-34-0, tissue analysis, corn; format: in vivo
Protocol: as §2, §3, §4, §5, §6, §7

Clover [10] = experiment: Foliar applied IDS chelated minerals, tissue analysis, clover; format: in vivo
Protocol: as §2, §8, §7

Soybean [11] = experiment: Foliar applied IDS chelated minerals, tissue analysis, soybeans; format: in vivo
Protocol: as §2, §8, §7

Wheat [12] = experiment: Foliar applied IDS chelated minerals, tissue analysis, wheat; format: in vivo
Protocol: as §2, §8, §7

Clover [13] = experiment: Soil applied IDS chelated minerals with 10-34-0, tissue analysis, clover; format: in vivo
Protocol: as §2, §3, §4, §5, §6, §7

For “2-ethanolaminesuccinic-N-ethanolsuccinicamide [Example 10]”, the “appearance of finished solution / precipitates” value ([1]; five percent chelated manganese solution: 18 ml water, 58 grams (17% Mn) manganese nitrate solution, 82 grams compound, pH of 5) was “clear and free of precipitates”, the “appearance of finished solution / precipitates” value ([2]; five percent chelated copper solution: 19 grams basic copper sulfate in 100 ml water, HCl, 71 grams compound, pH of 5) was “free of precipitates” and the “appearance of finished solution / precipitates” value ([3]; nine percent chelated zinc solution: 22.4 grams zinc oxide in 50 ml water, HCl, 125 grams compound, pH of 5) was “clear and free of precipitates”. For the same compound, the “appearance of finished solution / precipitates” value ([4]; five percent chelated iron solution: 18 ml water, 100 grams (10% Fe) ferric nitrate solution, 82 grams compound, pH of 5) was “clear and free of precipitates”.

With `O=C(CC(C(=O)[O-])N(CCO)C(CC(=O)NCCO)C(=O)[O-])NCCO.[K+].[K+]` (stereo not shown) [Example 17, diethanolsuccinicamide-amino ethanol] the “appearance of solution / precipitates” value ([5]; 2 grams calcium chloride dihydrate in 200 ml water, 20 ml solution, pH 9) was “a clear solution free of precipitates”, the “calcium phosphate precipitate formation” value ([5]; same solution lowered to a pH of 5.5, phosphate salts added) was “without calcium phosphate precipitate formation” and the “appearance of blend / precipitates” value ([1]; 10 ml manganese nitrate solution in 25 ml water, 30 ml solution, pH 6, 1 gram potassium phosphate) was “clear, amber in color, and free of precipitates”. The “appearance of blend / precipitates” value ([2]; 1 gram copper sulfate in 250 ml water, 10 ml solution, pH 8.4, 1 gram potassium phosphate) was “clear, dark blue and free of precipitates”, the “appearance of blend / precipitates” value ([3]; 1 gram zinc sulfate in 25 ml water, 30 ml solution, pH 9.5, 1 gram potassium phosphate) was “clear, yellow, and free of precipitates” and the “appearance of blend / precipitates” value ([4]; 20 ml 1.8M ferric nitrate in 25 ml water, 30 ml solution, pH 9.2, 1 gram potassium phosphate) was “clear, dark ruby red and free of precipitates”.

For `O=C([O-])CC(C(=O)[O-])N(CCO)C(CC(=O)[O-])C(=O)[O-].[K+].[K+].[K+].[K+]` (stereo not shown) [Example 35, N,N-disuccinic-amino-ethanol tetra potassium salt], the “appearance of solution / precipitates” value ([3]; 10 ml 17% zinc solution and 20 grams potassium phosphate in a liter of water, phosphorous acid, 30 ml solution, after a day pH 10 with MEA) was “remained clear, free of precipitates, and colorless” and the “redissolution of precipitated ferric phosphate” value ([4]; 20 grams potassium phosphate and 10 grams 1.8 M ferric solution in one liter water, 2.4 grams of the 0.75 M solution added) was “a clear yellow solution was produced inmediately”.

With ZINC the “zinc in plant tissue, TREATED” value (Wheat [6]; soil applied with 10-34-0, harvested 30 days after planting, control 39) was 93.1, the “zinc in plant tissue, CHANGE” value (Wheat [6]; soil applied, treated minus control 39) was 54.1 and the “zinc in plant tissue, % change” value (Wheat [6]; soil applied, versus control 39) was 139%. For the same compound, the “zinc in plant tissue, TREATED” value (Corn [7]; harvested 30 days after planting, control 15.6) was 792 parts per million, the “zinc in plant tissue, CHANGE” value (Corn [7]; treated minus control 15.6) was 776.4 parts per million and the “zinc in plant tissue, % change” value (Corn [7]; versus control 15.6) was 4977%. For the same compound, the “zinc in plant tissue, TREATED” value (Soybean [8]; soil applied with 10-34-0, harvested 30 days after planting, control 19.4) was 136, the “zinc in plant tissue, CHANGE” value (Soybean [8]; soil applied, treated minus control 19.4) was 116.6 and the “zinc in plant tissue, %” value (Soybean [8]; soil applied, versus control 19.4) was 601%. The “zinc in plant tissue, TREATED” value (Corn [9]; soil applied with 10-34-0, harvested 30 days after planting, control 24) was 69.6, the “zinc in plant tissue, CHANGE” value (Corn [9]; soil applied, treated minus control 24) was 45.6 and the “zinc in plant tissue, %” value (Corn [9]; soil applied, versus control 24) was 190%. The “zinc in plant tissue, TREATED” value (Clover [10]; harvested 30 days after planting, control 56.7) was 1264 parts per million, the “zinc in plant tissue, CHANGE” value (Clover [10]; treated minus control 56.7) was 1207.3 parts per million and the “zinc in plant tissue, TREATED” value (Soybean [11]; harvested 30 days after planting, control 63.8) was 1000 parts per million. For the same compound, the “zinc in plant tissue, CHANGE” value (Soybean [11]; treated minus control 63.8) was 936.2 parts per million, the “zinc in plant tissue, % change” value (Soybean [11]; versus control 63.8) was 1467% and the “zinc in plant tissue, TREATED” value (Wheat [12]; harvested 30 days after planting, control 44.3) was 563 parts per million. For the same compound, the “zinc in plant tissue, CHANGE” value (Wheat [12]; treated minus control 44.3) was 518.7 parts per million, the “zinc in plant tissue, TREATED” value (Clover [13]; soil applied with 10-34-0, harvested 30 days after planting, control 53.4) was 231 and the “zinc in plant tissue, CHANGE” value (Clover [13]; soil applied, treated minus control 53.4) was 177.6. The “zinc in plant tissue, % change” value (Clover [13]; soil applied, versus control 53.4) was 333%.
